Test results from patent US20080221200A1, “Combination of Organic Compounds” (priority 2005, published 2008).

What was measured:
mice (NOD) = test: Effect on insulitis in NOD mice dosed intraperitoneally; type: in vivo; details: intraperitoneal, from 4 weeks of age, 3 times a week for four weeks, assessed at 14 weeks
Protocol: To investigate the effect of Vildagliptin or the combination “Vildagliptin+compound A” on insulitis or type I diabetes mellitus, mice (NOD) with a genetic predisposition to develop IDDM (insulin dependent diabetes mellitus) are treated with Vildagliptin or the combination “Vildagliptin+compound A”. The animals are dosed intraperitoneally from 4 weeks of age, 3 times a week for four weeks. Insulitis is assessed at 14 weeks and scored in a table. The mice are scored according to the method of Beales et al. (European Journal of Pharmacology 357 (1998) 221-225. 3 or more (DMSO and PBS) represents severe grade insulitis and 1-3 represents little infiltration (a score of 1 would represent low grade peri-insulitis).

[1] = system: non-obese diabetic (NOD) mice; test: Incidence of insulitis in NOD mice, supplementation in drinking water during pregnancy and lactation; type: in vivo; details: maternal drinking water through pregnancy and lactation, examined at 12 weeks of age
Text: F. Effect of Vildagliptin and the combination of “Vildagliptin+compound A” on incidence of Insulitis Diabetes-prone non-obese diabetic (NOD) mice in which females develop a 90% rate of autoimmune diabetes by the age of 25 weeks is studied in order to determine the effect of Vildagliptin and the combination of “Vildagliptin+compound A” on insulitis onset and development. Insulitis initiates at 3-5 weeks of age in NOD mice, as leukocytes begin to infiltrate around ducts and venules in both female and male mice. These infiltrates progress toward the islets, which become surrounded by concentric layers of pen-insular lymphocytes (non-destructive peri-insulitis). Destructive intra-islet insulitis then occurs, leading to extensive P cell destruction. All NOD mice display peri-insulitis, whereas intra-insulitis and overt Type 1 diabetes is restricted to about 70-80% of females and about 10-15% of males in the NOD mouse colony used in this instance. […] Mice which are examined and found to have evidence of insulitis, are then further scored as peri-islet (slight), less than 50% area of islet (medium) or more than 50% islet area (heavy), as indicative of the stage and/or severity of insulitis.

N#C[C@@H]1CCCN1C(=O)CNC12CC3CC(CC(O)(C3)C1)C2 [vildagliptin, (S)-1-[(3-hydroxy-1-adamantyl)amino]acetyl-2-cyano-pyrrolidine]
insulitis score (mice (NOD)): unexpected good results in reducing insulitis
insulitis (histological evidence within pancreatic islets) [1]: unexpected good results in reducing insulitis
